Data as given in ChEMBL document CHEMBL1138134, “Phthalazinones 2: Optimisation and synthesis of novel potent inhibitors of poly(ADP-ribose)polymerase” (Bioorg Med Chem Lett, 2006).
Converted amounts (≈) assume the structure as drawn.

Experiments:
[1] = Half life in rat at 10 mg/kg, iv; assay type: ADME, organism-based; parameters: dose 10 mg/kg, route intravenous; settings: in vivo
[2] = Clearance in rat at 10 mg/kg, iv; assay type: ADME, organism-based; parameters: dose 10 mg/kg, route intravenous; settings: in vivo
[3] = Volume of distribution in rat at 10 mg/kg, iv; assay type: ADME, organism-based; parameters: dose 10 mg/kg, route intravenous; settings: in vivo, read-out: Vdss
[4] = Aqueous solubility at pH 7.4; assay type: physicochemical
[5] = target: T1, Poly [ADP-ribose] polymerase 1 (Homo sapiens, UniProt P09874); assay: Inhibitory activity against PARP1
T1 sequence (P09874 whole entry): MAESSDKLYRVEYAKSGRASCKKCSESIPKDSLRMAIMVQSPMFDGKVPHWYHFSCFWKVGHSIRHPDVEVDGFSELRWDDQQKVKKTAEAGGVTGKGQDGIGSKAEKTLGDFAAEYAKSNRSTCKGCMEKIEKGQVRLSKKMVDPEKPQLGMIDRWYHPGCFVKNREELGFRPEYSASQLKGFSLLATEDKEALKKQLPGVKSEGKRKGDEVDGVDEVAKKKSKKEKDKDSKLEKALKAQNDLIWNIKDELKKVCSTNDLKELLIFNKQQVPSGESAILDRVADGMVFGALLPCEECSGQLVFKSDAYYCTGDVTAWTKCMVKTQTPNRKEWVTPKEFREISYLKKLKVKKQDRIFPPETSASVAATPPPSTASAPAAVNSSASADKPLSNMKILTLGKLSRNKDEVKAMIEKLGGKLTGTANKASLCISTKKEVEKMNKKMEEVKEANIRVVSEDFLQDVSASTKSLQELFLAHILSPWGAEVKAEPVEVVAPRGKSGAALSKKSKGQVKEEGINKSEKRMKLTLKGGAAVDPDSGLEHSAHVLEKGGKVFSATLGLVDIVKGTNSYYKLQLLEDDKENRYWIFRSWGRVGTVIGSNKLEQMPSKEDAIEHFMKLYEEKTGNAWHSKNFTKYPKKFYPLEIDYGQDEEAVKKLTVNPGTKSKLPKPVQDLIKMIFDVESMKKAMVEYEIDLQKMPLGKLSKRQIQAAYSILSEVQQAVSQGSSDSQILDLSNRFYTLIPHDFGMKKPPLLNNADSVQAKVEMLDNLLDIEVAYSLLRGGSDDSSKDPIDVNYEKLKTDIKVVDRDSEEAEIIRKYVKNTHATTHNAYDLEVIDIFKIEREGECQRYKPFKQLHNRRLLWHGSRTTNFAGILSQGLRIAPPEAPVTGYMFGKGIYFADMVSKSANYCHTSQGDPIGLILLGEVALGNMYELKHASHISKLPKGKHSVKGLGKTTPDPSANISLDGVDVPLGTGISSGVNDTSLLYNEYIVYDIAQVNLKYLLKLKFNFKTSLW

CAPAN-1 = assay: Activity against BRCA2-deficient cells; assay type: functional, Homo sapiens
RKO = assay: Activity against wild type cells; assay type: functional, Homo sapiens
[6] = target: T1, Poly [ADP-ribose] polymerase 1; settings: HeLa
Description: Ratio of inhibition of HeLa cell proliferation by MMS alone against MMS with PARP inhibitors

Mus musculus = species on record: Mus musculus; assay: Intrinsic clearance in mouse hepatic microsomes; assay type: ADME, Liver, Microsome

SMILES	IC50 [5]	PF50 [6]	other results
O=C(c1cc(Cc2n[nH]c(=O)c3ccccc23)ccc1F)N1CCCNCC1	7 nM	12.6	half-life [1]: 1 h; clearance [2]: 54 mL/min/kg; Vd [3]: 2.1 L/kg; solubility [4]: 5100 µg/mL (≈ 13.4 mM); SF50 (CAPAN-1): 15 nM; SF50 (RKO): 2 µM
CCOC(=O)C1CCN(C(=O)c2cccc(Cc3n[nH]c(=O)c4ccccc34)c2)CC1	15 nM		
CCCN1CCCN(C(=O)c2cccc(Cc3n[nH]c(=O)c4ccccc34)c2)CC1	10 nM		
CCC(C)CN(C)C(=O)C1CCN(C(=O)c2cccc(Cc3nnc(O)c4ccccc34)c2)CC1 (stereo unspecified)		2.6	
COc1cc2c(cc1OC)CN(C(=O)C1CCN(C(=O)c3cccc(Cc4nnc(O)c5ccccc45)c3)CC1)CC2		4.1	
O=C(c1cccc(Cc2n[nH]c(=O)c3ccccc23)c1)N1CCCNCC1	9 nM		
O=C(c1cccc(Cc2nnc(O)c3ccccc23)c1)N1CCc2ccccc2C1	8 nM	3.4	
CC(C)CNC(=O)C1CCN(C(=O)c2cccc(Cc3nnc(O)c4ccccc34)c2)CC1	16 nM	2	
CCCN1CCCN(C(=O)c2cc(Cc3nnc(O)c4ccccc34)ccc2F)CC1	5 nM	7	
O=C(c1cccc(Cc2nnc(O)c3ccccc23)c1)N1CCCN(S(=O)(=O)c2cccc(C(F)(F)F)c2)CC1		2.1	
COc1ccc(NC(=O)N2CCCN(C(=O)c3cccc(Cc4nnc(O)c5ccccc45)c3)CC2)cc1		2.2	
O=C(c1cc(Cc2nnc(O)c3ccccc23)ccc1F)N1CCCN(CC2CC2)CC1		6.7	
CCN1CCCN(C(=O)c2cc(Cc3nnc(O)c4ccccc34)ccc2F)CC1		6.7	
O=C(NCCc1cccs1)C1CCN(C(=O)c2cccc(Cc3nnc(O)c4ccccc34)c2)CC1	8 nM	2.8	
O=C(NC1CCCC1)C1CCN(C(=O)c2cccc(Cc3nnc(O)c4ccccc34)c2)CC1	15 nM	2.5	
CCC(=O)Nc1cccc(Cc2n[nH]c(=O)c3ccccc23)c1		2.3	CL (Mus musculus): 12 mL/min/g
CN(Cc1ccccc1)C(=O)C1CCN(C(=O)c2cccc(Cc3nnc(O)c4ccccc34)c2)CC1	9 nM	2.1	
CCNC(=O)c1cccc(Cc2n[nH]c(=O)c3ccccc23)c1		2.1	CL (Mus musculus): < 1 mL/min/g
O=C(c1cccc(Cc2nnc(O)c3ccccc23)c1)N1CCCN(C2CCCCC2)CC1	6 nM	6.6	
O=C(c1cc(Cc2n[nH]c(=O)c3ccccc23)ccc1F)N1CCCN(CC2CC2)CC1	5 nM		
O=C(c1cccc(Cc2nnc(O)c3ccccc23)c1)N1CCCN(CC2CC2)CC1		3.1	
O=C(c1cc(Cc2nnc(O)c3ccccc23)ccc1F)N1CCCN(C2CCCCC2)CC1		6.3	

SMILES	IC50 [5]	PF50 [6]	other results
O=C(c1cccc(Cc2n[nH]c(=O)c3ccccc23)c1)N1CCNCC1		3.7	
CCC(C)CN(C)C(=O)C1CCN(C(=O)c2cccc(Cc3n[nH]c(=O)c4ccccc34)c2)CC1 (stereo unspecified)	9 nM		
O=C(c1cccc(Cc2nnc(O)c3ccccc23)c1)N1CCCNCC1		2.4	
O=C(c1cccc(Cc2nnc(O)c3ccccc23)c1)N1CCC(C(=O)N2CCCCC2)CC1	15 nM	3.9	
COc1cccc(CCC(=O)N2CCCN(C(=O)c3cccc(Cc4nnc(O)c5ccccc45)c3)CC2)c1	8 nM	2.5	
CCCN1CCCN(C(=O)c2cccc(Cc3nnc(O)c4ccccc34)c2)CC1		2.5	
O=C(c1cccc(Cc2nnc(O)c3ccccc23)c1)N1CCOCC1		1.2	
O=C(c1cccc(Cc2n[nH]c(=O)c3ccccc23)c1)N1CCCN(CC2CC2)CC1	14 nM		
COc1cc2c(cc1OC)CN(C(=O)C1CCN(C(=O)c3cccc(Cc4n[nH]c(=O)c5ccccc45)c3)CC1)CC2	16 nM		
CC1CCN(C(=O)C2CCN(C(=O)c3cccc(Cc4nnc(O)c5ccccc45)c3)CC2)CC1		4.4	
CC1CCN(C(=O)C2CCN(C(=O)c3cccc(Cc4n[nH]c(=O)c5ccccc45)c3)CC2)CC1	8 nM		
CCN1CCCN(C(=O)c2cccc(Cc3nnc(O)c4ccccc34)c2)CC1	15 nM	2.6	
O=C(c1cccc(Cc2n[nH]c(=O)c3ccccc23)c1)N1CCOCC1	40 nM		
Cc1noc(C)c1S(=O)(=O)N1CCCN(C(=O)c2cccc(Cc3n[nH]c(=O)c4ccccc34)c2)CC1	12 nM		
CN(C)CCN(C)C(=O)c1cccc(Cc2nnc(O)c3ccccc23)c1	46 nM	2.2	
CCOC(=O)C1CCN(C(=O)c2cccc(Cc3nnc(O)c4ccccc34)c2)CC1		2.1	
O=C(c1cccc(Cc2nnc(O)c3ccccc23)c1)N1CCCN(S(=O)(=O)c2ccc(-c3ccccc3)cc2)CC1		3.2	
Cc1noc(C)c1S(=O)(=O)N1CCCN(C(=O)c2cccc(Cc3nnc(O)c4ccccc34)c2)CC1		2.1	
CN1CCCN(C(=O)c2cccc(Cc3nnc(O)c4ccccc34)c2)CC1	23 nM	1.8	
CN1CCCN(C(=O)c2cc(Cc3nnc(O)c4ccccc34)ccc2F)CC1	9 nM	5.5	
COc1cc(C(=O)N2CCCN(C(=O)c3cccc(Cc4n[nH]c(=O)c5ccccc45)c3)CC2)cc(Cl)n1	9 nM		
COc1cc(C(=O)N2CCCN(C(=O)c3cccc(Cc4nnc(O)c5ccccc45)c3)CC2)cc(Cl)n1		2.5	
